Reference: patent publication US20230114241A1, “METHODS OF TREATING EPILEPSY USING THE SAME” (Trevena, Inc., priority 2019, published 2023)

Columns and labels:
[1] = molecular target: T1, human sphingosine-1-phosphate receptor 1 (S1P1) (Homo sapiens, UniProt P21453); assay: β-Arrestin2 recruitment assay (PathHunter), S1P1 CHO-K1 cells; format: cell-based; conditions: for Emax: CHO-K1, β-arrestin2 recruitment, efficacy normalized to maximum efficacy of fingolimod, read-out: hS1P1 B-arrestin2 SPAN; for EC50: β-arrestin2 recruitment, potency, read-out: hS1P1 B-arrestin2 pEC50 (converted)
How it was run: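 Agonist-driven β-arrestin2 recruitment measured by β-galactosidase complementation after 60 min compound exposure at 37 °C and 1 h detection at room temperature. Cells: stable CHO-K1 line expressing tagged human S1P1 with EA-β-arrestin2, plated the night before. Data expressed relative to fingolimod.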
Target sequence in this assay (P21453 whole entry): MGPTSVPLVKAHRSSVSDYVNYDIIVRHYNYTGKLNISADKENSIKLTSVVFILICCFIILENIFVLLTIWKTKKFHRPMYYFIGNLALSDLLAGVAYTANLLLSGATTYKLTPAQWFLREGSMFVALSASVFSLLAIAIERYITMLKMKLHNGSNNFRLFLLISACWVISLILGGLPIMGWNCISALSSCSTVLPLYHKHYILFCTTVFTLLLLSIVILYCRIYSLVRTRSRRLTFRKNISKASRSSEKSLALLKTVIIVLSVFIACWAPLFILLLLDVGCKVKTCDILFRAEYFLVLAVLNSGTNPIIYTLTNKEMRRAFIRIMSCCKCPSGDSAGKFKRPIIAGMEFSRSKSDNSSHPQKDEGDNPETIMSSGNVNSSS
Target sequence in this assay (P32121 whole entry partner): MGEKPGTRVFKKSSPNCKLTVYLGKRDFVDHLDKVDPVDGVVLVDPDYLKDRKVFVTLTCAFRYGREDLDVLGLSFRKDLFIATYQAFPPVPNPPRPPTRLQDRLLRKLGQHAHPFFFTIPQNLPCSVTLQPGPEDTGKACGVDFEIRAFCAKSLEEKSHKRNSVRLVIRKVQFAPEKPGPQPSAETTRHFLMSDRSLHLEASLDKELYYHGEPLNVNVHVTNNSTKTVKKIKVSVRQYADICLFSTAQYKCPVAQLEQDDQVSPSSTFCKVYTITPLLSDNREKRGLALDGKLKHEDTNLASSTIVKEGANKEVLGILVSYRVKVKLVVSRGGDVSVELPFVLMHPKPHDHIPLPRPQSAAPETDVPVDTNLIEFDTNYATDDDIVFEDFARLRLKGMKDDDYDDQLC

[2] = molecular target: T1, human sphingosine-1-phosphate receptor 1 (S1P1); assay: Inhibition of cAMP production (HTRF cAMP HiRange), S1P1 CHO-K1 cells; format: cell-based; conditions: inhibition of cAMP production; for Emax: CHO-K1, efficacy normalized to maximum efficacy of fingolimod, read-out: hS1P1 CAMP SPAN; for EC50: potency, read-out: hS1P1 CAMP pEC50 (converted)
How it was run: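 Intracellular cAMP changes read by TR-FRET (HTRF HiRange, 1 h room temperature) after 30 min compound exposure at 37 °C. Cells: overnight-plated CHO-K1 stably expressing tagged human S1P1 with EA-β-arrestin2. Responses normalized to fingolimod.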
Target sequence in this assay (P21453 whole entry): as the sequence (P21453 whole entry) above

Structure (SMILES)	Emax [1]	Emax [2]	EC50 [1]	EC50 [2]
CC(C)n1nnc2cc(-c3noc(C4CCCC4)n3)ccc21 [Compound 278, 5-(5-cyclopentyl-1,2,4-oxadiazol-3-yl)-1-(propan-2-yl)-1H-1,2,3-benzotriazole5-(5-cyclopentyl-1,2,4-oxadiazol-3-yl)-1-(propan-2-yl)-1H-1,2,3-benzotriazole]	< 75%	< 75%		
CC(C)Cn1nnc2cc(-c3nc(-c4ccccc4Cl)no3)ccc21 [Compound 289, 5-[3-(2-chlorophenyl)-1,2,4-oxadiazol-5-yl]-1-(2-methylpropyl)-1H-1,2,3-benzotriazole]	< 75%	< 75%	> 10 µM	> 0.316 µM
O=C1CC2(CCCC2)Oc2ccc(-c3nc(-c4cccnc4)no3)cc21 [Compound 298, 6-[3-(pyridin-3-yl)-1,2,4-oxadiazol-5-yl]-3,4-dihydrospiro[1-benzopyran-2,1′-cyclopentane]-4-one]	< 75%	> 75%	< 10 µM	> 0.316 µM
CCC1(CC)CC(=O)c2cc(-c3nnc(-c4ccccc4OC)o3)ccc2O1 [Compound 300, 2,2-diethyl-6-(5-(2-methoxyphenyl)-1,3,4-oxadiazol-2-yl)chroman-4-one]	> 75%	> 75%	> 10 µM	> 0.316 µM
CCC1(CC)CC(=O)c2cc(-c3nc(-c4ccc5c(c4)nnn5C(C)C)no3)ccc2O1 [Compound 305, 2,2-diethyl-6-(3-(1-isopropyl-1H-benzo[d][1,2,3]triazol-5-yl)-1,2,4-oxadiazol-5-yl)chroman-4-one]	< 75%	> 75%	> 10 µM	> 0.316 µM
Cc1ccccc1-c1noc(-c2ccc3c(c2)nnn3C2CCC2)n1 [Compound 306, 1-cyclobutyl-5-[3-(2-methylphenyl)-1,2,4-oxadiazol-5-yl]-1H-1,2,3-benzotriazole]	< 75%	> 75%	< 10 µM	< 0.316 µM
CCC1(CC)CC(=O)c2cc(-c3nc(-c4cncc(OC)c4)no3)ccc2O1 [Compound 311, 2,2-diethyl-6-(3-(5-methoxypyridin-3-yl)-1,2,4-oxadiazol-5-yl)chroman-4-one]	> 75%	> 75%	> 10 µM	> 0.316 µM
CC(C)n1ccc2cc(-c3nc(-c4cccc5c4OCCC5)no3)ccc21 [Compound 327, 3-chroman-8-yl-5-(1-isopropylindol-5-yl)-1,2,4-oxadiazole]	> 75%	< 75%	< 10 µM	> 0.316 µM
COc1ccccc1-c1nnc(-c2ccc3[nH]oc(=O)c3c2)o1 [Compound 339, 5-[5-(2-methoxyphenyl)-1,3,4-oxadiazol-2-yl]-1,3-dihydro-2,1-benzoxazol-3-one]	< 75%	< 75%	> 10 µM	> 0.316 µM
COc1ccccc1-c1nnc(-c2ccc3c(c2)c(=O)on3C)o1 [Compound 340, 5-[5-(2-methoxyphenyl)-1,3,4-oxadiazol-2-yl]-1-methyl-1,3-dihydro-2,1-benzoxazol-3-one]	< 75%	< 75%	> 10 µM	> 0.316 µM
COc1ccccc1-c1nnc(-c2ccc3c(c2)CCC(=O)N3)o1 [Compound 341, 6-[5-(2-methoxyphenyl)-1,3,4-oxadiazol-2-yl]-1,2,3,4-tetrahydro-quinolin-2-one]	< 75%	< 75%	> 10 µM	> 0.316 µM
Cc1nc(-c2ccccc2)oc1-c1cnc2c(c1)CC(=O)N2 [Compound 360, 5-(4-methyl-2-phenyl-1,3-oxazol-5-yl)-1H,2H,3H-pyrrolo[2,3-b]pyridin-2-one]	< 75%	< 75%	> 10 µM	> 0.316 µM
Cc1ccccc1-c1noc(-c2ccc3scnc3c2)n1 [Compound 362, 5-[3-(2-methylphenyl)-1,2,4-oxadiazol-5-yl]-1,3-benzothiazole]	< 75%	< 75%	> 10 µM	> 0.316 µM
Cc1ccccc1-c1noc(-c2ccc3c(c2)CCC(=O)N3)n1 [Compound 365, 6-[3-(2-methylphenyl)-1,2,4-oxadiazol-5-yl]-1,2,3,4-tetrahydroquinolin-2-one]	< 75%	> 75%	< 10 µM	> 0.316 µM
Cc1ccccc1-c1noc(-c2ccc3c(c2)CCC(=O)N3C)n1 [Compound 367, 1-methyl-6-[3-(2-methyl-phenyl)-1,2,4-oxadiazol-5-yl]-1,2,3,4-tetrahydroquinolin-2-one]	< 75%	< 75%	> 10 µM	> 0.316 µM
COc1ccccc1-c1noc(-c2ccc3c(cnn3C(C)C)c2)n1 [Compound 370, 5-(1-isopropyl-1H-indazol-5-yl)-3-(2-methoxyphenyl)-1,2,4-oxadiazole]	> 75%	> 75%	< 10 µM	< 0.316 µM

The next lines start with the values.

Emax [1]	Emax [2]	EC50 [1]	EC50 [2]	Structure (SMILES)
> 75%	> 75%	< 10 µM	> 0.316 µM	COc1cccc(F)c1-c1noc(-c2ccc3c(ccn3C(C)C)c2)n1 [Compound 328, 3-(2-fluoro-6-methoxy-phenyl)-5-(1-isopropyl-indol-5-yl)-1,2,4-oxadiazole]
< 75%	< 75%	> 10 µM	> 0.316 µM	COc1ccc(-c2nc(-c3cccc4[nH]ccc34)ns2)cc1 [Compound 361, 4-[5-(4-methoxyphenyl)-1,2,4-thiadiazol-3-yl]-1H-indole]
< 75%	< 75%	> 10 µM	> 0.316 µM	COc1ccc(-c2nsc(-c3ccc4[nH]ccc4c3)n2)cc1 [Compound 363, 5-[3-(4-methoxyphenyl)-1,2,4-thiadiazol-5-yl]-1H-indole]
< 75%	> 75%	> 10 µM	> 0.316 µM	COc1cccc(-c2nc(-c3ccc4[nH]ccc4c3)ns2)c1 [Compound 364, 5-[5-(3-methoxyphenyl)-1,2,4-thiadiazol-3-yl]-1H-indole]
< 75%	< 75%	> 10 µM	> 0.316 µM	COc1cccc(-c2nc(-c3ccc4c(ccn4C(C)C)c3)ns2)c1 [Compound 366, 5-[5-(3-methoxyphenyl)-1,2,4-thiadiazol-3-yl]-1-(propan-2-yl)-1H-indole]
< 75%	< 75%	> 10 µM	> 0.316 µM	COc1ccccc1-c1noc(-c2ccc3[nH]ccc3c2)n1 [Compound 368, 5-(1H-indol-5-yl)-3-(2-methoxyphenyl)-1,2,4-oxadiazole]
< 75%	< 75%	> 10 µM	> 0.316 µM	COc1ccccc1-c1noc(-c2ccc3[nH]cnc3c2)n1 [Compound 369, 5-(1H-benzo[d]imidazol-5-yl)-3-(2-methoxy-phenyl)-1,2,4-oxadiazole]
< 75%	< 75%	> 10 µM	> 0.316 µM	COc1ccccc1-c1noc(-c2ccc3[nH]ncc3c2)n1 [Compound 371, 5-(1H-indazol-5-yl)-3-(2-methoxyphenyl)-1,2,4-oxadiazole]
